From US12594285B2, “Compositions and methods for protecting against airborne pathogens and irritants” (APPLIED BIOLOGICAL LABORATORIES, INC., priority 2016, dated 2026)

Tests used:
[1] = tested on: Human Rhinovirus A16 (clinical strain: QCHRV.16); assay: Apical Rhinovirus replication by quantitative RT-PCR (Example 4); assay type: cell-based; conditions: 3.5, 24 and 48 hours pi; formulations applied apically at 0, 3.5 and 24 h; Rupintrivir 5 μM in basal medium
[2] = tested on: Human Rhinovirus A16 (clinical strain: QCHRV.16); assay: Apical Rhinovirus replication by quantitative RT-PCR (Example 6); assay type: cell-based; conditions: Example 6; Rupintrivir 5 μM in basal medium; 3.5, 24 and 48 hours pi
[3] = tested on: Influenza A H1N1 (clinical strain: A/California/7/09); assay: Apical Influenza replication by quantitative RT-PCR (Example 5); assay type: cell-based; conditions: 3.5, 24 and 48 hours pi; Oseltamivir 10 μM in basal medium
[4] = tested on: MucilAir™ 3D model of human airway epithelium infected with Rhinovirus A16; assay: TEER tissue integrity, MucilAir inoculated with Rhinovirus A16 (Example 4); conditions: toxic positive control, 10% Triton X-100, after cell damage

Compound: CCOC(=O)/C=C/[C@H](C[C@@H]1CCNC1=O)NC(=O)[C@@H](CC(=O)[C@@H](NC(=O)c1cc(C)on1)C(C)C)Cc1ccc(F)cc1 [Rupintrivir]
- Rhinovirus A16 replication (genome copy number, apical washes) [1]: inhibited
- Rhinovirus A16 replication (genome copy number, apical washes) [2]: inhibited

Compound: CCOC(=O)C1=C[C@@H](OC(CC)CC)[C@H](NC(C)=O)[C@@H](N)C1 [Oseltamivir]
- Influenza A H1N1 replication (genome copy number, apical washes) [3]: inhibited

Compound: Triton X-100
- TEER [4]: below 100 Ωcm^2
